This is an account of results in PMC7582705, “Structure-Based Discovery of Novel Chemical Classes of Autotaxin Inhibitors” (International Journal of Molecular Sciences, 2020).

Test [1] concerns the target T1, ATX (Homo sapiens, UniProt Q13822). Nature of the test: Amplex Red Lyso-phospholipase D assay, human ATX. To be noted: for IC50: Table S2, Sino hATX 2nM; for inhibition at 30 µM: read-out: %inhibition at 30uM. Details: purchased Sino Biological. It counts as biochemical. On the procedure: All compounds proposed were assessed for their ATX inhibitory activity in vitro using the Amplex Red assay. The Amplex Red Lyso-phospholipase D assay is a fluorometry-based assay providing a sensitive method for measuring Lyso-phospholipase D (ATX) activity in vitro. In this enzyme-coupled assay, ATX activity is monitored indirectly using 10-acetyl-3,7-dihydrophenoxazine (Amplex Red reagent), a sensitive fluorogenic probe for H2O2. ATX initially cleaves the Lysophosphatidylcholine (LPC) substrate to yield choline and Lysophosphatidic acid (LPA), while choline gets subsequently oxidized by choline oxidase to betaine and H2O2. Lastly, H2O2, in the presence of horseradish peroxidase (HRP), reacts with Amplex Red reagent in a 1:1 stoichiometry to generate the highly fluorescent product resorufin.
The inhibition assay was performed as previously described with some modifications in order to accommodate the newly-discovered lag phase in ATX kinetics. To this end, and in order to provide adequate time to the hydrolysis of LPC by ATX, we added a 30min incubation period between ATX, inhibitors and LPC. Briefly, 2 μL of different concentrations of inhibitors diluted in DMSO (Sigma-Aldrich, St. Louis, MO, USA) were incubated with 50 µL of ATX 8 nM (human or mouse ATX from Sino Biological), and 48 µL reaction buffer (50 mM Tris-Cl pH 8.0 from Thermo Fisher Scientific, Waltham, MA, USA and 5 mM CaCl2 from Honeywell-Fluka, Charlotte, NC, USA) in a black 96-well microplate for 15 min at 37 °C. Thence, another 50 µL of reaction buffer with 200 μM LPC substrate 16:0 (Avanti Polar Lipids Inc, Alabaster, AL, USA) ([…]) was added to the reaction mixture and incubated for 30 min at 37 °C in order for ATX to convert LPC to LPA and choline. Finally, 50 µL of working solution containing 200 μM Amplex Red (Invitrogen, Carlsbad, CA, USA), 4 U/mL HRP (Sigma-Aldrich, St. Louis, MO, USA), 0.4 U/mL choline oxidase (Sigma-Aldrich, St. Louis, MO, USA) in 50 mM Tris-HCl pH 8.0 and 5 mM CaCl2 was added to measure the produced choline. The reaction was monitored at 37 °C in a fluorescence plate reader using excitation at 530 nm and reading at 590 nm, every 5 min for 30 min. The velocity of the reaction and the remaining activity of ATX were calculated at the linear phase of the reaction and dose-response inhibition graphs were plotted with GraphPad Software (GraphPad Software, San Diego, CA, USA). […] In order to evaluate a possible effect of the compounds on the second (choline oxidase) and third (HRP) enzymes of the Amplex Red assay, we also performed the assay in the absence of ATX but in the presence of the compounds. Instead of ATX, we added choline chloride at a final concentration of 2 µM so as the second and third steps of the assay could proceed normally.

Test [2] deals with T1, ATX. Nature of the test: IC50 Eleanna (Table S2, method not described). It counts as biochemical. The note with it: Table S2; read-out: IC50 Eleanna.
Where [3] appears, read: read-out: in vitro IC50 (Sino hATX 2nM).

A word on the IC50: it is the concentration at which inhibition is half-maximal. For `COCCCN1C(=O)c2[nH]nc(-c3ccccc3)c2C1c1ccc(C(C)C)cc1` (stereo not drawn) [KM-2, 5-(3-methoxypropyl)-3-phenyl-4-(4-propan-2-ylphenyl)-1,4-dihydropyrrolo[3,4-c]pyrazol-6-one], the half-maximal inhibitory concentration (IC50) against ATX [1] (in vitro IC50 (Sino hATX 2nM)) is over 30 µM; on ATX [2], over 5 µM.
The matching figures for `CCc1ccccc1NC(=O)C1c2ccccc2C(=O)N(CCOC)C1c1cccs1` (stereo not drawn) [KM-4, N-(2-ethylphenyl)-2-(2-methoxyethyl)-1-oxo-3-thiophen-2-yl-3,4-dihydroisoquinoline-4-carboxamide]: over 30 µM and over 5 µM.
The term inhibition denotes the percentage by which the read-out fell short of the control. In the case of `CCOC(=O)c1c(CN2CCCCC2)n(-c2ccccc2)c2cc(Br)c(OC)cc12` [KM-6, ethyl 6-bromo-5-methoxy-1-phenyl-2-(piperidin-1-ylmethyl)indole-3-carboxylate], the inhibition at 30 µM on ATX [1] (Table S2, at 30uM) was determined as 20.6%. The half-maximal inhibitory concentration (IC50) on ATX [1] (in vitro IC50 (Sino hATX 2nM)) is over 30 µM; at ATX [2] it was 4.5 µM.
As for `COc1ccccc1C(=O)NCc1nc2ccccc2n1Cc1cc(C)ccc1C` [KM-9, N-[[1-[(2,5-dimethylphenyl)methyl]benzimidazol-2-yl]methyl]-2-methoxybenzamide,], at ATX [1] (Table S2, at 30uM), the inhibition at 30 µM stood at 17.1%. For the same compound, the IC50 against ATX [1] (in vitro IC50 (Sino hATX 2nM)) is over 30 µM; on ATX [2], 5 µM.
`Cc1ccc(C)c(NC(=O)CSc2cn(CC(=O)N3CCCC3)c3ccccc23)c1` [KM-21, N-(2,5-dimethylphenyl)-2-[1-(2-oxo-2-pyrrolidin-1-ylethyl)indol-3-yl]sulfanylacetamide]: the values for the IC50 against ATX [1] (in vitro IC50 (Sino hATX 2nM)) and at ATX [2] were over 30 µM and over 5 µM, respectively.
As for `COc1cc([C@H]2c3cccn3CCN2C(=S)Nc2ccccc2C)cc(OC)c1OC` [KM-27, N-(o-tolyl)-1-(3,4,5-trimethoxyphenyl)-3,4-dihydro, (1S)-N-(2-methylphenyl)-1-(3,4,5-trimethoxyphenyl)-3,4-dihydro-1H-pyrrolo[1,2-a]pyrazine-2-carbothioamide], the IC50 on ATX [1] (setting [3]) was over 30 µM; on ATX [2], 1 µM.
Turning to `COc1ccc(Cn2c(C(=O)O)c(CNC3CCCCC3)c3ccc(C)cc32)cc1` [KM-29, 3-[(cyclohexylamino)methyl]-1-[(4-methoxyphenyl)methyl]-6-methylindole-2-carboxylic acid], the inhibition at 30 µM on ATX [1] (Table S2, at 30uM) stood at 3.21%. Besides, the results for the IC50 at ATX [1] (in vitro IC50 (Sino hATX 2nM)) and at ATX [2] were over 30 µM and 1.2 µM, respectively.
The corresponding values for `CCOC(=O)Cc1c(CN2CCN(C)CC2)c2ccccc2n1Cc1ccccc1` [KM-30, ethyl 2-[1-benzyl-3-[(4-methylpiperazin-1-yl)methyl]indol-2-yl]acetate] are 0%, over 30 µM and 5 µM.
As for `COc1ccc(NC(=S)N2CCn3cccc3C2c2ccc(OC)c(OC)c2)cc1` (stereo not drawn) [KM-31, 1-(3,4-dimethoxyphenyl)-N-(4-methoxyphenyl)-3,4-dihydro-1H-pyrrolo[1,2-a]pyrazine-2-carbothioamide], the figures for the IC50 on ATX [1] (in vitro IC50 (Sino hATX 2nM)) and at ATX [2] were over 30 µM and 4.5 µM, respectively.
For `CCc1ccc([C@H](NC(=O)CCN2C(=O)[C@@H](C)Oc3ccccc32)c2cccs2)cc1` [KM-36, N-[(S)-(4-ethylphenyl)-thiophen-2-ylmethyl]-3-[(2R)-2-methyl-3-oxo-1,4-benzoxazin-4-yl]propanamide], the inhibition at 30 µM on ATX [1] (Table S2, at 30uM) was 9.71%. The IC50 is over 30 µM on ATX [1] (in vitro IC50 (Sino hATX 2nM)) and 5 µM on ATX [2].
With `CCOC(=O)c1c(-c2ccccc2)oc2ccc(O)c(CN3CCC(C)CC3)c12` [KM-39, 3-ethoxycarbonyl-4-[(4-methylpiperidin-1-ium-1-yl)methyl]-2-phenyl-1-benzofuran-5-olate], the results for the concentration for half-maximal inhibition (IC50) at ATX [1] (in vitro IC50 (Sino hATX 2nM)) and on ATX [2] were over 30 µM and 5 µM, respectively.
By %inhibition is commonly meant how much of the control response was suppressed. The low end stands for a response near the control, the high end for a response far below the control. For the compound `CCOC(=O)c1c(-c2ccccc2)oc2ccc(O)c(CN3CCC(C)CC3)c12.Cl` [KM-40, ethyl 5-hydroxy-4-[(4-methylpiperidin-1-yl)methyl]-2-phenyl-1-benzofuran-3-carboxylate;hydrochloride], the “%inhibition at 30uM” value at ATX [1] (Table S2, at 30uM) is listed as 41.295%. For the same compound, at ATX [1] (setting [3]), the 50% inhibitory concentration (IC50) is over 30 µM.
Regarding `CC1Cc2nc(SCC(=O)NCc3ccc(F)cc3)n(Cc3ccccc3)c(=O)c2S1` (stereo not drawn) [KM-45, 2-[(3-benzyl-6-methyl-4-oxo-6,7-dihydrothieno[3,2-d]pyrimidin-2-yl)sulfanyl]-N-[(4-fluorophenyl)methyl]acetamide], the inhibition at 30 µM at ATX [1] (Table S2, at 30uM) was 35.3%. For the same compound, the values for the half-maximal inhibitory concentration (IC50) against ATX [1] (in vitro IC50 (Sino hATX 2nM)) and at ATX [2] were over 30 µM and 1.3 µM, respectively.
Take `COc1ccc2c(CNC3CCC(C)CC3)c(C(=O)O)n(Cc3ccccc3)c2c1` (stereo not drawn) [KM-47, 1-benzyl-6-methoxy-3-[[(4-methylcyclohexyl)amino]methyl]indole-2-carboxylic acid]: the figures for the 50% inhibitory concentration (IC50) against ATX [1] (in vitro IC50 (Sino hATX 2nM)) and on ATX [2] were over 30 µM and over 5 µM, respectively.
Turning to `CCOC(=O)c1c(-c2ccccc2)oc2ccc(O)c(CN3CCCCC3C)c12` (stereo not drawn) [KM-48, 2,3-dihydroxybutanedioic acid;ethyl 5-hydroxy-4-[(2-methylpiperidin-1-yl)methyl]-2-phenyl-1-benzofuran-3-carboxylate], the IC50 is over 30 µM on ATX [1] (setting [3]) and over 5 µM at ATX [2].
Turning to `CCOC(=O)c1c(C)c(-c2ccccc2)n(CC(=O)N2CCc3ccccc3C2)c1C` [KM-49, ethyl 1-[2-(3,4-dihydro-1H-isoquinolin-2-yl)-2-oxoethyl]-2,4-dimethyl-5-phenylpyrrole-3-carboxylate], the 50% inhibitory concentration (IC50) was over 30 µM on ATX [1] (in vitro IC50 (Sino hATX 2nM)) and 5 µM on ATX [2].
Consider `Cc1cc(C)cc(NC(=O)CSc2cn(CC(=O)N3CCCC3)c3ccccc23)c1` [KM-50, N-(3,5-dimethylphenyl)-2-[1-(2-oxo-2-pyrrolidin-1-ylethyl)indol-3-yl]sulfanylacetamide], for which the half-maximal inhibitory concentration (IC50) at ATX [1] (in vitro IC50 (Sino hATX 2nM)) was over 30 µM; on ATX [2], 5 µM.
In the case of `Cc1ccccc1-n1nc2c(c1NC(=O)c1cccc3ccccc13)C[S+]([O-])C2` (stereo not drawn) [SC-3, N-[2-(2-methylphenyl)-5-oxo-4,6-dihydrothieno[3,4-c]pyrazol-3-yl]naphthalene-1-carboxamide], the inhibition at 30 µM on ATX [1] (Table S2, at 30uM) was determined as 4.2%. Also, the IC50 at ATX [1] (in vitro IC50 (Sino hATX 2nM)) was over 30 µM; at ATX [2], 0.6 µM.
On to `O=S(=O)(c1ccc(F)cc1)N1C=Cc2ccccc2C1c1c[nH]c2ccccc12` (stereo not drawn) [SC-4, 2-(4-fluorophenyl)sulfonyl-1-(1H-indol-3-yl)-1H-isoquinoline], for which the IC50 is over 30 µM against ATX [1] (in vitro IC50 (Sino hATX 2nM)) and over 5 µM at ATX [2].
As to `O=C(Cc1cccc2ccccc12)Nc1c2c(nn1-c1ccccc1)CS(=O)(=O)C2` [SC-5, N-(5,5-dioxo-2-phenyl-4,6-dihydrothieno[3,4-c]pyrazol-3-yl)-2-naphthalen-1-ylacetamide], the inhibition at 30 µM at ATX [1] (Table S2, at 30uM) stood at 43%. For the same compound, the concentration for half-maximal inhibition (IC50) at ATX [1] (in vitro IC50 (Sino hATX 2nM)) was 30 µM; on ATX [2], 2.2 µM.
In the case of `O=C(Nc1c2c(nn1-c1ccccc1)CS(=O)(=O)C2)c1cccc2ccccc12` [SC-6, N-(5,5-dioxo-2-phenyl-4,6-dihydrothieno[3,4-c]pyrazol-3-yl)naphthalene-1-carboxamide], the values for the half-maximal inhibitory concentration (IC50) on ATX [1] (in vitro IC50 (Sino hATX 2nM)) and on ATX [2] were over 30 µM and over 5 µM, respectively.
The matching figures for `O=C(Cc1cccc2ccccc12)Nc1c2c(nn1-c1ccccc1)C[S+]([O-])C2` (stereo not drawn) [SC-7, 2-naphthalen-1-yl-N-(5-oxo-2-phenyl-4,6-dihydrothieno[3,4-c]pyrazol-3-yl)acetamide]: over 30 µM and over 5 µM.
Regarding `COc1ccc(C2SCCN2S(=O)(=O)c2ccc3c(c2)Cc2ccccc2-3)cc1` (stereo not drawn) [SC-8, 3-(9H-fluoren-2-ylsulfonyl)-2-(4-methoxyphenyl)-1,3-thiazolidine], the IC50 on ATX [1] (in vitro IC50 (Sino hATX 2nM)) is over 30 µM; at ATX [2], over 5 µM.
